Assay results published in US6380181B1, “Synthetic catechol derivatives, method for production and use thereof” (priority 1996, dated 2002).
Values after ≈ are worked out from the molar mass of the structure shown.

Columns and labels:
Assay type in all cases: cell-based
[1] = system: Stenotrophomonas maltophilia GN 12873; assay: Agar diffusion test; conditions: concentration 100 μg/ml
[2] = system: Pseudomonas aeruginosa KW 799 WT (wild type); assay: Agar diffusion test; conditions: concentration 100 μg/ml; P. aeruginosa KW799/WT
[3] = system: Serratia marcescens SG 621; assay: Microdilution test (MIC); conditions: SG621
Method: (§1) The minimum inhibiting concentrations (MICs) were determined for the following bacterial strains: Pseudomonas aeruginosa NCTC 10701, NCTC 10662, SG 137, ATCC 27853, KW 799 WT and KW 799/61, E. coli DCO, DC2 and ATCC 25922, Serratia marcescens SG 621; Salmonella gallinarum ATCC 9184, Klebsiella pneumoniae ATCC 10031 and SG 117.

[4] = system: Pseudomonas aeruginosa NCTC 10701; assay: Microdilution test (MIC); conditions: Pseudomonas aeruginosa, NCTC10701; P. aeruginosa NCTC 10701
Method: as §1

[5] = system: Klebsiella pneumoniae ATCC 10031; assay: Microdilution test (MIC); conditions: ATCC10031
Method: as §1

[6] = system: Pseudomonas aeruginosa SG 137; assay: Microdilution test (MIC); conditions: Pseudomonas aeruginosa, SG137; P. aeruginosa SG 137
Method: as §1

[7] = system: Klebsiella pneumoniae SG 117; assay: Microdilution test (MIC); conditions: SG117
Method: as §1

E. coli ATCC 25922 = assay: Microdilution test (MIC); conditions: Escherichia coli, ATCC25922
Method: as §1

[8] = system: Pseudomonas aeruginosa NCTC 10662; assay: Microdilution test (MIC); conditions: Pseudomonas aeruginosa, NCTC10662; P. aeruginosa NCTC 10662
Method: as §1

[9] = system: Pseudomonas aeruginosa ATCC 27853; assay: Microdilution test (MIC); conditions: Pseudomonas aeruginosa, ATCC27853; P. aeruginosa ATCC 27853
Method: as §1

[10] = system: E. coli mutant PLB3268 ompF++; conditions: E. coli mutant PLB3268 ompF++ (ompF super-expressed)
From the text: (§2) The efficacy against β-lactamase formers and against multi-resistant germs is therefore due to a new type of mechanism for overcoming the penetration resistance, by means of which the ratio of active ingredient to enzyme in the bacterial cell is influenced so that not all antibiotic molecules are inactivated before they reach their target.
PLB268: ompF- was super-expressed.

[11] = system: Salmonella gallinarum ATCC 9184; conditions: concentration 100 μg/ml; Salmonella galinarum ATCC 9184
[12] = system: Pseudomonas aeruginosa Oxa6 (plasmid-coded β-lactamase); conditions: concentration 100 μg/ml; P. aeruginosa OXA 6
[13] = system: E. coli DC2 (penetration mutant); conditions: concentration 100 μg/ml
[14] = system: Pseudomonas aeruginosa NPS1 (plasmid-coded β-lactamase); conditions: concentration 100 μg/ml; P. aeruginosa NPS 1
E. coli AB2847 tonB+ = system: E. coli AB2847 tonB+
[15] = system: Pseudomonas aeruginosa KW 799/61; assay: Microdilution test (MIC); conditions: Pseudomonas aeruginosa, KW799/61; P. aeruginosa KW 799/61
How it was run: (§3)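 Broth microdilution MIC determination; paired strains (Pseudomonas KW 799 WT vs /61, E. coli DC0 vs DC2) used to assess the effect of improved penetration capacity on compound efficacy.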

E. coli DC0 = assay: Microdilution test (MIC); conditions: Escherichia coli, DC0, read-out: MIC values, microdilution test
How it was run: as §3

[16] = system: Pseudomonas aeruginosa KW 799 WT; assay: Microdilution test (MIC); conditions: Pseudomonas aeruginosa, KW799WT; P. aeruginosa KW 799/WT
How it was run: as §3

[17] = system: Stenotrophomonas maltophilia GN 12873; assay: Microdilution test (MIC); conditions: GN12873
[18] = system: E. coli mutant BR185 tonB−
E. coli DC2 = assay: microbe, parasite or virus in culture; conditions: Escherichia coli, read-out: MIC values, microdilution test
How it was run: as §3

[19] = system: Pseudomonas aeruginosa ATCC 9027 (wild type); assay: Agar diffusion test; conditions: concentration 100 μg/ml; P. aeruginosa ATCC 9027
E. coli mutant KB5 ompC− = system: E. coli mutant KB5 ompC−
From the text: as §2

E. coli mutant KB4 ompF− = system: E. coli mutant KB4 ompF−
From the text: as §2

[20] = system: Klebsiella pneumoniae SG 117; assay: Agar diffusion test; conditions: concentration 100 μg/ml
[21] = system: Pseudomonas aeruginosa NCTC 10662; assay: Agar diffusion test; conditions: concentration 100 μg/ml; P. aeruginosa NCTC 10662
[22] = system: Pseudomonas aeruginosa KW 799/61 (penetration mutant); conditions: concentration 100 μg/ml; P. aeruginosa KW799/61
[23] = system: Stenotrophomonas maltophilia IMET 10402; assay: Agar diffusion test; conditions: concentration 100 μg/ml
[24] = system: Pseudomonas aeruginosa NCTC 10701; assay: Agar diffusion test; conditions: concentration 100 μg/ml; P. aeruginosa NCTC 10701
[25] = system: Klebsiella pneumoniae ATCC 10031; assay: Agar diffusion test; conditions: concentration 100 μg/ml
[26] = system: Pseudomonas aeruginosa ATCC 27853 (wild type); assay: Agar diffusion test; conditions: concentration 100 μg/ml; P. aeruginosa ATCC 27853
E. coli DC0 (wild type) = assay: Agar diffusion test; conditions: concentration 100 μg/ml
[27] = system: Pseudomonas aeruginosa SG 137 (carbenicillin-resistant); assay: Agar diffusion test; conditions: concentration 100 μg/ml; P. aeruginosa SG 137
[28] = system: Salmonella gallinarum ATCC 9184; assay: microbe, parasite or virus in culture; conditions: Salmonella enterica; Salmonella gallinarum ATCC9184; read-out: MIC values, microdilution test
Method: as §1

`CC1(C)S[C@@H]2[C@H](NC(=O)[C@H](NC(=O)N3CCNC3=O)c3ccccc3)C(=O)N2[C@H]1C(=O)O` [Azlocillin, reference compound] was tested, and the “inhibition spot diameter in the agar diffusion test” value [1] was 0 mm, the “inhibition spot diameter in the agar diffusion test” value [2] was 27 mm and the MIC [3] was 50 µg/mL (≈ 108 µM). The MIC [4] was 0.2 µg/mL (≈ 0.433 µM), the MIC [5] was 6.25 µg/mL (≈ 13.5 µM) and the MIC [6] was 6.25 µg/mL (≈ 13.5 µM). For the same compound, the MIC [7] was 6.25 µg/mL (≈ 13.5 µM), the MIC (E. coli ATCC 25922) was 6.25 µg/mL (≈ 13.5 µM) and the MIC [8] was 6.25 µg/mL (≈ 13.5 µM). For the same compound, the MIC [9] was 6.25 µg/mL (≈ 13.5 µM), the “inhibition spot diameter in agar diffusion test” value [10] was 17.5 mm and the “inhibition spot diameter in the agar diffusion test” value [11] was 21 mm. For the same compound, the “inhibition spot diameter in the agar diffusion test” value [12] was 0 mm, the “inhibition spot diameter in the agar diffusion test” value [13] was 33 mm and the “inhibition spot diameter in the agar diffusion test” value [14] was 0 mm. The “inhibition spot diameter in agar diffusion test” value (E. coli AB2847 tonB+) was 8 mm, the MIC [15] was 0.2 µg/mL (≈ 0.433 µM) and the MIC (E. coli DC0) was 12.5 µg/mL (≈ 27.1 µM). The MIC [16] was 3.12 µg/mL (≈ 6.76 µM), the MIC [17] was 25 to 100 µg/mL (≈ 54.2 to 217 µM) and the “inhibition spot diameter in agar diffusion test” value [18] was 8 mm. The MIC (E. coli DC2) was 0.78 µg/mL (≈ 1.69 µM), the “inhibition spot diameter in the agar diffusion test” value [19] was 15 mm and the “inhibition spot diameter in agar diffusion test” value (E. coli mutant KB5 ompC−) was 4 mm. The “inhibition spot diameter in agar diffusion test” value (E. coli mutant KB4 ompF−) was 6.5 mm, the “inhibition spot diameter in the agar diffusion test” value [20] was 18 mm and the “inhibition spot diameter in the agar diffusion test” value [21] was 17 mm. The “inhibition spot diameter in the agar diffusion test” value [22] was 40 mm, the “inhibition spot diameter in the agar diffusion test” value [23] was 21 mm and the “inhibition spot diameter in the agar diffusion test” value [24] was 27 mm. For the same compound, the “inhibition spot diameter in the agar diffusion test” value [25] was 15 mm, the “inhibition spot diameter in the agar diffusion test” value [26] was 19 mm and the “inhibition spot diameter in the agar diffusion test” value (E. coli DC0 (wild type)) was 16 mm. For the same compound, the “inhibition spot diameter in the agar diffusion test” value [27] was 17 mm and the MIC [28] was 3.12 µg/mL (≈ 6.76 µM).
